Assay results as given in patent publication US9012460B2, “1-(2-phenoxymethylphenyl)piperazine compounds” (Theravance Biopharma R&D IP, LLC, priority 2010, dated 2015).

Legend:
[1] = molecular target: T1, hSERT (Homo sapiens, UniProt P31645); experiment: hSERT membrane radioligand binding assay (Assay 1); details: 3H-citalopram, membranes from HEK-293 cells expressing hSERT; read-out: SERT pKi (converted)
T1 construct: expressed in transfected cells; host or cells: HEK-293
Description: (§1) Membrane radioligand binding assays were used to measure inhibition of labeled ligand (^3H-citalopram or ^3H-nisoxetine or ^3H-WIN35428) binding to membranes prepared from cells expressing the respective human recombinant transporter (hSERT or hNET or hDAT) in order to determine the pKi values of test compounds at the transporters.
(§2) Recombinant human embryonic kidney (HEK-293) derived cell lines stably transfected with hSERT or hNET, respectively, were grown in DMEM medium supplemented with 10% dialyzed FBS (for hSERT) or FBS (for hNET), 100 μg/ml penicillin, 100 μg/ml streptomycin, 2 mM L-glutamine and 250 μg/ml of the aminoglycoside antibiotic G418, in a 5% CO2 humidified incubator at 37° C. When cultures reached 80% confluence, the cells were washed thoroughly in PBS (without Ca^2+ and Mg^2+) and lifted with 5 mM EDTA in PBS. Cells were pelleted by centrifugation, resuspended in lysis buffer (10 mM Tris-HCl, pH7.5 containing 1 mM EDTA), homogenized, pelleted by centrifugation, then resuspended in 50 mM Tris-HCl, pH 7.5 and 10% sucrose at 4° C. Protein concentration of the membrane suspension was determined using a Bio-Rad Bradford Protein Assay kit. Membranes were snap frozen and stored at −80° C. Chinese hamster ovary membranes expressing hDAT (CHO-DAT) were purchased from PerkinElmer and stored at −80° C.
(§3) Binding assays were performed in a 96-well assay plate in a total volume of 200 μL assay buffer (50 mM Tris-HCl, 120 mM NaCl, 5 mM KCl, pH 7.4) with 0.5, 1, and 3 μg membrane protein, for SERT, NET and DAT, respectively.
(§4) Stock solutions (10 mM in DMSO) of test compound were prepared and serial dilutions made using Dilution Buffer (50 mM Tris-HCl, 120 mM NaCl, 5 mM KCl, pH 7.4, 0.1% BSA, 400 μM ascorbic acid).
(§5) Following a 60 minute incubation at 22° C. (or a period sufficient to reach equilibrium), the membranes were harvested by rapid filtration over a 96-well UniFilter GF/B plate, pretreated with 0.3% polyethyleneimine, and washed 6 times with 300 μl wash buffer (50 mM Tris-HCl, 0.9% NaCl, pH 7.5 at 4° C.). Plates were dried overnight at room temperature, ˜45 μl of MicroScint™-20 (Perkin Elmer) added and bound radioactivity quantitated via liquid scintillation spectroscopy. Inhibition curves and saturation isotherms were analyzed using GraphPad Prism Software package (GraphPad Software, Inc., San Diego, Calif.). IC50 values were generated from concentration response curves using the Sigmoidal Dose Response (variable slope) algorithm in Prism GraphPad. Kd and Bmax values for the radioligand were generated from saturation isotherms using the Saturation Binding Global Fit algorithm in Prism GraphPad. pKi (negative decadic logarithm of Ki) values for test compounds were calculated from the best-fit IC50 values, and the Kd value of the radioligand, using the Cheng-Prusoff equation (Cheng & Prusoff (1973) Biochem. Pharmacol. 22(23):3099-3108): Ki=IC50/(1+[L]/Kd), where [L]=concentration radioligand.

[2] = molecular target: T2, hNET (Homo sapiens, UniProt P23975); experiment: hNET membrane radioligand binding assay (Assay 1); details: 3H-nisoxetine, membranes from HEK-293 cells expressing hNET; read-out: NET pKi (converted)
T2 construct: expressed in transfected cells; host or cells: HEK-293
Description: as §1, §2, §3, §4, §5

[3] = molecular target: T1, hSERT; experiment: hSERT neurotransmitter uptake assay (Assay 2) or fluorescence-based assay of Tsuruda et al.; format: cell-based; details: serotonin reuptake inhibition; asterisk = fluorescence-based assay (Tsuruda et al. 2010); read-out: SERT pIC50 (converted)
Description: (§6) Neurotransmitter uptake assays were used to measure inhibition of ^3H-serotonin (^3H-5-HT), ^3H-norepinephrine (^3H-NE), and ^3H-dopamine (^3H-DA) uptake into cells expressing the respective transporter (hSERT, hNET or hDAT) in order to determine the pIC50 values of test compounds at the transporters.
(§7) HEK-293 derived cell lines stably-transfected with hSERT, hNET, or hDAT, respectively, were grown in DMEM medium supplemented with 10% dialyzed FBS (for hSERT) or FBS (for hNET and hDAT), 100 μg/ml penicillin, 100 μg/ml streptomycin, 2 mM L-glutamine and 250 μg/ml of the aminoglycoside antibiotic G418 (for hSERT and hNET) or 800 ug/ml (for hDAT), in a 5% CO2 humidified incubator at 37° C. When cultures reached 80% confluence, the cells were washed thoroughly in PBS (without Ca^2+and Mg^2+) and lifted with 5 mM EDTA in PBS. […]
(§8) Following a 10 minute incubation, at 37° C., with radioligand, the cells were harvested by rapid filtration over a 96-well UniFilter GF/B plate, pretreated with 1% BSA, and washed 6 times with 650 μl wash buffer (ice cold PBS). Plates were dried overnight at 37° C., ˜45 μl of MicroScint™-20 (Perkin Elmer) added and incorporated radioactivity quantitated via liquid scintillation spectroscopy. Inhibition curves were analyzed using GraphPad Prism Software package (GraphPad Software, Inc., San Diego, Calif.). […]

[4] = molecular target: T2, hNET; experiment: hNET neurotransmitter uptake assay (Assay 2) or fluorescence-based assay of Tsuruda et al.; format: cell-based; details: norepinephrine reuptake inhibition; asterisk = fluorescence-based assay (Tsuruda et al. 2010); read-out: NET pIC50 (converted)
Description: as §6, §7, §8

T1 sequence (P31645 whole entry): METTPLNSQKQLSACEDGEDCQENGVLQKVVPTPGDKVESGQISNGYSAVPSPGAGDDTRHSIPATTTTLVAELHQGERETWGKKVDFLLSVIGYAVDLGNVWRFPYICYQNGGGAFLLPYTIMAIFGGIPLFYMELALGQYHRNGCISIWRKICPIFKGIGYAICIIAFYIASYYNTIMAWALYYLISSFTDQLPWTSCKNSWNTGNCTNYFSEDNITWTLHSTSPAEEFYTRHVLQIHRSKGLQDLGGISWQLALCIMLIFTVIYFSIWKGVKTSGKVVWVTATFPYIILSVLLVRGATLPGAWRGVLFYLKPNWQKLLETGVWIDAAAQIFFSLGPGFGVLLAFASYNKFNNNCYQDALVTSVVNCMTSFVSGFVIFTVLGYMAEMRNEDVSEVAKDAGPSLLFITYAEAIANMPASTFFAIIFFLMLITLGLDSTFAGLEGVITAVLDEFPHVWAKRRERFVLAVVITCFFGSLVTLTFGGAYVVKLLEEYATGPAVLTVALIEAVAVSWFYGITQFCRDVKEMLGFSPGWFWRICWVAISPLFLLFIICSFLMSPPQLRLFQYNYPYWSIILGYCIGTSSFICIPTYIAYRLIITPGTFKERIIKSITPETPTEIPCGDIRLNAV
T2 sequence (P23975 whole entry): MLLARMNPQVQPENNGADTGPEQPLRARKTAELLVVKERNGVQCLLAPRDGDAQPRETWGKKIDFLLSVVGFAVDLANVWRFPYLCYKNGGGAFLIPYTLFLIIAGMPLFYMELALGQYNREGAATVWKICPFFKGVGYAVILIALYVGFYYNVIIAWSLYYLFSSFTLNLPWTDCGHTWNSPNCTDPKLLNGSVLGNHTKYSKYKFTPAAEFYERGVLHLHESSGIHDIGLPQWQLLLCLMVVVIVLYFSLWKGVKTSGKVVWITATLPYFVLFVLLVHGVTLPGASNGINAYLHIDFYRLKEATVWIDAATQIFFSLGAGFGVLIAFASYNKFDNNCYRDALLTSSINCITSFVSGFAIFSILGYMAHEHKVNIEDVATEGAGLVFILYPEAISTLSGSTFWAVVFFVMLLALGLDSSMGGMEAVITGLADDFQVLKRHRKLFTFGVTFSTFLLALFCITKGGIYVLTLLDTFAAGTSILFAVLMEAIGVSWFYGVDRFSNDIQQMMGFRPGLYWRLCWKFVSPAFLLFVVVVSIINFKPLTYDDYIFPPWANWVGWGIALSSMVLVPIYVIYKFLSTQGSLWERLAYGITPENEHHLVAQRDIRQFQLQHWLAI

Clc1cccc(OCc2ccccc2N2CCNCC2)c1 [Example 2-12]
≤ 100 nM: Ki [1] | Ki [2] | IC50 [3] | IC50 [4]
